Results as given in PMC12220852, “An adamantane‐based ligand as a novel chemical tool for thermosensory TRPM8 channel therapeutic modulation” (The Febs Journal, 2025).
Entries after “also recorded” stand apart in the source; their conditions may differ.

Assays:
[1] = molecular target: T1, neuronal TRPM8 channels (mTRPM8) in dorsal root ganglion neurons (Mus musculus, UniProt Q8R4D5); assay: Patch-clamp of WS-12-evoked currents in primary DRG nociceptor cultures; format: cell-based, murine; details: WS-12 evoked current, −60 mV, N = 3, n = 8; read-out: IC50 of mTRPM8 current blockade in DRG neurons
T1 construct: neuronal TRPM8 channels expressed in murine primary nociceptor cultures; endogenous in cells; host or cells: primary cultures of mouse dorsal root ganglion neurons
T1 sequence (Q8R4D5 whole entry): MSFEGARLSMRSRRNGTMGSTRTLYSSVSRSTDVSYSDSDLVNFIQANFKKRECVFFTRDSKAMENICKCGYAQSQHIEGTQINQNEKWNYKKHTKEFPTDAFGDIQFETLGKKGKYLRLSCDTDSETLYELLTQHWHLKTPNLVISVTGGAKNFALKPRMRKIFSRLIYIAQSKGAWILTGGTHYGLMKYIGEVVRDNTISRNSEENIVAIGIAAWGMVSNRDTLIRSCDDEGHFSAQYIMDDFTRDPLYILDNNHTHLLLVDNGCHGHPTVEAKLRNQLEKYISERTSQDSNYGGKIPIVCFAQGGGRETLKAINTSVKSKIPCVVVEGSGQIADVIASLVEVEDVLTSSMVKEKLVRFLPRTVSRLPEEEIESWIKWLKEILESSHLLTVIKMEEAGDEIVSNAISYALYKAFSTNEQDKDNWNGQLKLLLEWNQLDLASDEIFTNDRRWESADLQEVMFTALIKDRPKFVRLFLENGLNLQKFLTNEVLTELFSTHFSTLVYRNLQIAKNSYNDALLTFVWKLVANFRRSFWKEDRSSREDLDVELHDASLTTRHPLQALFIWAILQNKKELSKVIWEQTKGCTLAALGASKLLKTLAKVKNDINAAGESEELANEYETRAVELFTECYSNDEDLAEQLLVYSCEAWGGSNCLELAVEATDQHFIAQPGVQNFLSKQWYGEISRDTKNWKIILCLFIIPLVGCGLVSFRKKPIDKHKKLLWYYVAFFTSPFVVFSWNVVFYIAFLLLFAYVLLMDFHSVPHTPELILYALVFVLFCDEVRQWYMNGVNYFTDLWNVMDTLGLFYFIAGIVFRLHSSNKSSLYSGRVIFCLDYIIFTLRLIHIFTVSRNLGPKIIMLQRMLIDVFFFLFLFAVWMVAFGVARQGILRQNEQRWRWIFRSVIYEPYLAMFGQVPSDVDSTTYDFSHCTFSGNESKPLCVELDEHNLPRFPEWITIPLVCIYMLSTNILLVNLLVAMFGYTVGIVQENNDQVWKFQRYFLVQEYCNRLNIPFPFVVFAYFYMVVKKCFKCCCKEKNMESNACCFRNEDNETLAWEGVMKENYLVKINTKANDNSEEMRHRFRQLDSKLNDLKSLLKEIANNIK
Text: To examine the in vivo activity of compound 23, we first investigated its inhibitory potency on neuronal TRPM8 channels expressed in murine primary nociceptor cultures by patch‐clamp. […] Alternatively, it could also be due to distinct gating mechanisms of both orthologs or the influence of the neuronal environment.
Primary cultures of neonatal dorsal root ganglia were used for multielectrode array (MEA) and patch‐clamp experiments following established methodologies previously described. Neonatal dorsal root ganglia (DRGs) were obtained from Wistar rats (3–5 days old) and were isolated and digested with 0.25% (w/v) collagenase (type IA) in DMEM GlutaMax with 1% (v/v) penicillin/streptomycin (P/S) solution for 1 h at 37 °C in a 5% CO2 Thermo Scientific incubator. Following digestion, DRGs were mechanically dissociated and passed through a 100 μm cell strainer to obtain single‐cell suspensions. Suspensions were washed with DMEM GlutaMax with 10% (v/v) fetal bovine serum (FBS) and 1% (v/v) penicillin/streptomycin (P/S). Cells were then seeded in microelectrode array chambers coated with poly‐L‐lysine (8.3 μg·mL^−1) and laminin (5 μg·mL^−1). After 1 h, the medium was replaced with DMEM GlutaMax, 10% (v/v) FBS, and 1% (v/v) P/S, supplemented with mouse 2.5S NGF 50 ng·mL^−1 and 1.25 μg·mL^−1 cytosine arabinoside. […]

[2] = tested on: oxaliplatin‐induced peripheral cold allodynia in mice; assay: Acetone drop test in oxaliplatin-induced cold allodynia; format: in vivo, mouse; details: 30 and 90 min after administration, oxaliplatin-treated mice
Method: Given the inhibitory activity of compound 23 and the antinociceptive effects of TRPM8 antagonists described in models of oxaliplatin (OXP)‐induced neuropathy, we conducted a behavioral experiment in mice to assess the antinociceptive effects of compound 23 after repeated oxaliplatin administration. Oxaliplatin was intraperitoneally (i.p.) administered every other day for 5 days at 6 mg·kg^−1, reaching a total accumulative dose of 18 mg·kg^−1. […]
The systemic effect of compound 23 was assessed after intraperitoneal administration at 5 mg·kg^−1, dissolved in a solution of 2% Cremophor and 5% DMSO in saline, with a volume of 10 mL·kg^−1. […] Nociceptive sensitivity was evaluated for 30‐ and 90‐min postinjection using the acetone drop test (7 days after the first oxaliplatin dose) and the dry ice test (9 days after the last oxaliplatin dose).
The local effect of compound 23 or its vehicle was assessed 11 days after beginning the oxaliplatin treatment through subcutaneous intraplantar injection of 1 μg compound 23 or vehicle (2% Cremophor and 5% DMSO in saline) in the ventral side of the right hind paw, administered in a volume of 10 μL [66]. […] Nociceptive sensitivity was evaluated 30 and 90 min after the intraplantar injection with the acetone test. […]

IC50 [1]: 430 ± 750 nM
SMILES: O=C(COC(=O)c1ccccc1-c1ccccc1)NC12CC3CC(CC(C3)C1)C2 [Compound 23, 2‐((3S,5S,7S)‐adamantan‐1‐ylamino)‐2‐oxoethyl [1,1′‐biphenyl]‐2‐carboxylate]
effect on response to acetone, local treatment ([2]; 1 μg subcutaneous intraplantar (i.pl.)): alleviated oxaliplatin‐induced cold sensitivity; also recorded: significant antinociceptive effect
effect on licking response to acetone drops, systemic treatment ([2]; 5 mg·kg^−1 i.p., vs vehicle): no significant effect; also recorded: did not significantly affect
